According to ChEMBL document CHEMBL1201862, “PubChem BioAssay data set” (2004):
The source made the active and inactive calls.

Tests used:
Genome polyprotein = Genome polyprotein (dengue virus type 2, UniProt P29990); test: flavivirus cap methylation enzyme inhibition – biochemical, confirmation dose response, primary screen (AID 588689); format: functional
[1] = target: Lysine-specific demethylase 4C (Homo sapiens, UniProt Q9H3R0); test: inhibition of JMJD2C H3K9me3 demethylation – biochemical, DELFIA europium, cherry-picked samples, dose response (AID 488835); format: functional
[2] = target: T1, Orexin/Hypocretin receptor type 1 (Homo sapiens, UniProt O43613); test: Fluorescence-based cell-based high throughput dose response assay for antagonists of the orexin 1 receptor (OX1R; HCRTR1). [Related pubchem assays (depositor defined):AID434989, AID435008, AID463079, AID485270, AID492963, AID492964, AID492965, AID493232, AID504717, AID504718]; format: functional
T1 sequence (O43613 whole entry): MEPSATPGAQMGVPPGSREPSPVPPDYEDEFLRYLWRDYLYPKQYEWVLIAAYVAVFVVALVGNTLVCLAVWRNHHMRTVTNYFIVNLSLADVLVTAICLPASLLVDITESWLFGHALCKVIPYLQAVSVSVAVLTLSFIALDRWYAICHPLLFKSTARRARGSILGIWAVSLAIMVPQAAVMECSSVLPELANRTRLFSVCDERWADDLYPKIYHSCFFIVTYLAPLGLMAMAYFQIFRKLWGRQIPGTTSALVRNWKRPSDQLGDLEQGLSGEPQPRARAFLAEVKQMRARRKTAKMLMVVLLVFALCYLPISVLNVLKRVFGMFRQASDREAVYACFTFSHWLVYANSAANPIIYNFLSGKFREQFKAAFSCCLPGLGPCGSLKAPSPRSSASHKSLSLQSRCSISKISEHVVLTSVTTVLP

[3] = target: T1, Orexin/Hypocretin receptor type 1; test: Homogeneous Time Resolved Fluorescence (HTRF)-based cell-based high throughput dose response assay for antagonists of the orexin 1 receptor (OX1R; HCRTR1). [Related pubchem assays (depositor defined):AID434989, AID435008, AID463079, AID485270, AID492963, AID492964, AID492965, AID493232, AID504717, AID504718]; format: functional
CHO-K1 = test: Counterscreen for antagonists of the orexin 1 receptor (OX1R; HCRTR1): Homogeneous time resolved fluorescence (HTRF)-based cell-based dose response assay to identify antagonists of the parental CHO-K1 cell line. [Related pubchem assays (depositor defined):AID434989, AID435008, AID463079, AID485270, AID492963, AID492964, AID492965, AID493232, AID504699, AID504701]; format: functional; conditions: Cricetulus griseus;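 note: potency for inhibition of ATP-stimulated IP1 production as antagonists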
[4] = Counterscreen for antagonists of the orexin 1 receptor (OX1R; HCRTR1): Fluorescence-based cell-based high throughput dose response assay to identify antagonists of the parental CHO cell line. [Related pubchem assays (depositor defined):AID434989, AID435008, AID463079, AID485270, AID492963, AID492964, AID492965, AID493232, AID504699, AID504701]; format: functional
BJ [5] = test: cells; format: functional, cell-based; conditions: Homo sapiens
[6] = Luminescence Cell-Based Dose Response HTS to Identify Inhibitors of Luciferase Translation or Activity in H4-C Neuroglioblastoma Cells. [Related pubchem assays: 1813 (Primary HTS), 1827 (Project Summary)]; format: functional
[7] = Luminescence Cell-Based Dose Response HTS to Identify Activators of 5'UTR Stem-Loop Driven Prion Protein mRNA Translation in H4-C Neuroglioblastoma Cells. [Related pubchem assays: 1829 (Project Summary), 1814 (Primary HTS)]; format: functional
[8] = Luminescence Cell-Based Dose Retest to Confirm Activators of 5'UTR Stem-Loop Driven Alpha-Synuclein mRNA Translation in H4 Neuroglioblastoma Cells. [Related pubchem assays (depositor defined):AID1813, AID1829]; format: functional
BJ [9] = test: BJ-TERT fibroblast viability loss – cell-based, RAS-independent, luminescence, dose response (AID 1933); format: functional; conditions: Homo sapiens
[10] = DRD fibroblast viability loss – cell-based, non-viral oncogenic, luminescence, dose response (AID 1934); format: functional; conditions: Homo sapiens
[11] = Luminescence Cell-Based Dose Confirmation HTS to Identify Inhibitors of 5'UTR Stem-Loop Driven Alpha-Synuclein mRNA Translation in H4 Neuroglioblastoma Cells. [Related pubchem assays: 1827 (Project Summary), 1813 (Primary HTS)]; format: functional
BJ [12] = test: BJ-TERT-LT-ST fibroblast viability loss – cell-based, RAS-independent, luminescence, dose response (AID 1935); format: functional; conditions: Homo sapiens;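 note: BJ fibroblasts immortalized with TERT plus LT and ST oncogenes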
[13] = Luminescence Cell-Based Dose Response HTS to Identify Inhibitors of 5'UTR Stem-Loop Driven Prion Protein mRNA Translation in H4 Neuroglioblastoma Cells. [Related pubchem assays: 1827 (Project Summary), 1813 (Primary HTS)]; format: functional
[14] = Luminescence Cell-Based Dose HTS Response to Identify Inhibitors of 5'UTR Stem-Loop Driven Prion Protein mRNA Translation in H4-C Neuroglioblastoma Cells. [Related pubchem assays (depositor defined):AID1814, AID1827]; format: functional
[15] = luciferase reporter signal suppression in cells – H4 neuroglioma cells, luminescence, dose response (AID 1990); format: functional, cell-based
[16] = Luminescence Cell-Based Dose Response HTS to Identify Activators of Luciferase Translation or Activity in H4-C Neuroglioblastoma Cells. [Related pubchem assays: 1829 (Project Summary), 1814 (Primary HTS)]; format: functional
[17] = alpha-synuclein stem-loop luciferase translation blockers – H4 neuroglioma cells, luminescence, confirmation (AID 1988); format: functional, cell-based
[18] = target: T2, Tyrosine-protein phosphatase non-receptor type 7 (Homo sapiens, UniProt P35236); format: functional
T2 sequence (P35236 whole entry): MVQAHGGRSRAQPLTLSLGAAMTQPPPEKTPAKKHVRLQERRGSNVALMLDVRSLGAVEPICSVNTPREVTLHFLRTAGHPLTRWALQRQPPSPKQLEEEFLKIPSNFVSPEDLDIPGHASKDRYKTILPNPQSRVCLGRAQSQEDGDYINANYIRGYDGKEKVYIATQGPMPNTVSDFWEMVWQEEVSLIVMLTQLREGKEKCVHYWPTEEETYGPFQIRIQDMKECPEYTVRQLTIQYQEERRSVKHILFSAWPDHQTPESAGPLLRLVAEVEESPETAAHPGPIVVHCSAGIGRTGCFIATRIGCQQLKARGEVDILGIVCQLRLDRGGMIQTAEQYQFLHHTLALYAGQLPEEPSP

[19] = target: T3, Dual specificity protein phosphatase 6 (Rattus norvegicus, UniProt Q64346)
T3 sequence (Q64346 whole entry): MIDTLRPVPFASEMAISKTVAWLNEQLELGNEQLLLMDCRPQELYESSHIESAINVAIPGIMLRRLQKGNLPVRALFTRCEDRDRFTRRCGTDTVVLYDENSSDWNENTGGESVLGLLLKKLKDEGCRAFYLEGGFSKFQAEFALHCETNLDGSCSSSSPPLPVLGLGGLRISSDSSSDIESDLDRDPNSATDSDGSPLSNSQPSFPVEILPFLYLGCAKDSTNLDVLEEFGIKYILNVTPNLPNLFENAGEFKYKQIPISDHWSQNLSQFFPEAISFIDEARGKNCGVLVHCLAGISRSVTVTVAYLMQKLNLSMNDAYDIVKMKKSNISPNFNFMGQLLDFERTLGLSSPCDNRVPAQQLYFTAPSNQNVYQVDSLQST

[20] = target: Heat shock 70 kDa protein 1A (Homo sapiens, UniProt P0DMV8); test: inhibition of Hsp70 binding activity – biochemical, fluorescence polarization, SAR follow-up (AID 1072)
Heat shock 70 kDa protein 1A, sequence (P0DMV8 whole entry): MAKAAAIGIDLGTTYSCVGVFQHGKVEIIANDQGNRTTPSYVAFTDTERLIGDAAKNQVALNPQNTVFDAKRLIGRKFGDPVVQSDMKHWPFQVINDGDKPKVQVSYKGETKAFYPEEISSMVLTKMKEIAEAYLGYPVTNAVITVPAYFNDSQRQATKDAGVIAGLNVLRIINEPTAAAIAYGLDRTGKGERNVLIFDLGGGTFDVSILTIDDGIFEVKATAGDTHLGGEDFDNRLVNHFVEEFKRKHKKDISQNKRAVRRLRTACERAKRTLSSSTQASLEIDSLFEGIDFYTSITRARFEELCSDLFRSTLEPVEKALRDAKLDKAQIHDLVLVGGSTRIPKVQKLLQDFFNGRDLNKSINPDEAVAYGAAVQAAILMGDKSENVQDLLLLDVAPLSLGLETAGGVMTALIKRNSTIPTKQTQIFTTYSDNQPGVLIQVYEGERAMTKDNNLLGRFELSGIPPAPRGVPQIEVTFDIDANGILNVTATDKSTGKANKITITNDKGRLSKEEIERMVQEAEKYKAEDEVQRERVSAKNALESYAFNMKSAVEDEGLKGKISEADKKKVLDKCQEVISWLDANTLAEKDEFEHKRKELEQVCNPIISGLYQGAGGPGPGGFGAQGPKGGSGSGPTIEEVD

[21] = target: T3, Dual specificity protein phosphatase 6; format: functional
[22] = target: Heat shock cognate 71 kDa protein (Homo sapiens, UniProt P11142); test: In Vitro Hsc70 Dose Response Fluorescence Polarization Assay. [Related pubchem assays: 1072 ]
[23] = target: Glyceraldehyde-3-phosphate dehydrogenase (Homo sapiens, UniProt P04406)
[24] = target: T4, Voltage-gated N-type calcium channel alpha-1B subunit/Amyloid beta A4 precursor protein-binding family A member 1 (Homo sapiens, UniProt Q00975+Q02410); format: protein assay
T4 sequence (Q00975 whole entry): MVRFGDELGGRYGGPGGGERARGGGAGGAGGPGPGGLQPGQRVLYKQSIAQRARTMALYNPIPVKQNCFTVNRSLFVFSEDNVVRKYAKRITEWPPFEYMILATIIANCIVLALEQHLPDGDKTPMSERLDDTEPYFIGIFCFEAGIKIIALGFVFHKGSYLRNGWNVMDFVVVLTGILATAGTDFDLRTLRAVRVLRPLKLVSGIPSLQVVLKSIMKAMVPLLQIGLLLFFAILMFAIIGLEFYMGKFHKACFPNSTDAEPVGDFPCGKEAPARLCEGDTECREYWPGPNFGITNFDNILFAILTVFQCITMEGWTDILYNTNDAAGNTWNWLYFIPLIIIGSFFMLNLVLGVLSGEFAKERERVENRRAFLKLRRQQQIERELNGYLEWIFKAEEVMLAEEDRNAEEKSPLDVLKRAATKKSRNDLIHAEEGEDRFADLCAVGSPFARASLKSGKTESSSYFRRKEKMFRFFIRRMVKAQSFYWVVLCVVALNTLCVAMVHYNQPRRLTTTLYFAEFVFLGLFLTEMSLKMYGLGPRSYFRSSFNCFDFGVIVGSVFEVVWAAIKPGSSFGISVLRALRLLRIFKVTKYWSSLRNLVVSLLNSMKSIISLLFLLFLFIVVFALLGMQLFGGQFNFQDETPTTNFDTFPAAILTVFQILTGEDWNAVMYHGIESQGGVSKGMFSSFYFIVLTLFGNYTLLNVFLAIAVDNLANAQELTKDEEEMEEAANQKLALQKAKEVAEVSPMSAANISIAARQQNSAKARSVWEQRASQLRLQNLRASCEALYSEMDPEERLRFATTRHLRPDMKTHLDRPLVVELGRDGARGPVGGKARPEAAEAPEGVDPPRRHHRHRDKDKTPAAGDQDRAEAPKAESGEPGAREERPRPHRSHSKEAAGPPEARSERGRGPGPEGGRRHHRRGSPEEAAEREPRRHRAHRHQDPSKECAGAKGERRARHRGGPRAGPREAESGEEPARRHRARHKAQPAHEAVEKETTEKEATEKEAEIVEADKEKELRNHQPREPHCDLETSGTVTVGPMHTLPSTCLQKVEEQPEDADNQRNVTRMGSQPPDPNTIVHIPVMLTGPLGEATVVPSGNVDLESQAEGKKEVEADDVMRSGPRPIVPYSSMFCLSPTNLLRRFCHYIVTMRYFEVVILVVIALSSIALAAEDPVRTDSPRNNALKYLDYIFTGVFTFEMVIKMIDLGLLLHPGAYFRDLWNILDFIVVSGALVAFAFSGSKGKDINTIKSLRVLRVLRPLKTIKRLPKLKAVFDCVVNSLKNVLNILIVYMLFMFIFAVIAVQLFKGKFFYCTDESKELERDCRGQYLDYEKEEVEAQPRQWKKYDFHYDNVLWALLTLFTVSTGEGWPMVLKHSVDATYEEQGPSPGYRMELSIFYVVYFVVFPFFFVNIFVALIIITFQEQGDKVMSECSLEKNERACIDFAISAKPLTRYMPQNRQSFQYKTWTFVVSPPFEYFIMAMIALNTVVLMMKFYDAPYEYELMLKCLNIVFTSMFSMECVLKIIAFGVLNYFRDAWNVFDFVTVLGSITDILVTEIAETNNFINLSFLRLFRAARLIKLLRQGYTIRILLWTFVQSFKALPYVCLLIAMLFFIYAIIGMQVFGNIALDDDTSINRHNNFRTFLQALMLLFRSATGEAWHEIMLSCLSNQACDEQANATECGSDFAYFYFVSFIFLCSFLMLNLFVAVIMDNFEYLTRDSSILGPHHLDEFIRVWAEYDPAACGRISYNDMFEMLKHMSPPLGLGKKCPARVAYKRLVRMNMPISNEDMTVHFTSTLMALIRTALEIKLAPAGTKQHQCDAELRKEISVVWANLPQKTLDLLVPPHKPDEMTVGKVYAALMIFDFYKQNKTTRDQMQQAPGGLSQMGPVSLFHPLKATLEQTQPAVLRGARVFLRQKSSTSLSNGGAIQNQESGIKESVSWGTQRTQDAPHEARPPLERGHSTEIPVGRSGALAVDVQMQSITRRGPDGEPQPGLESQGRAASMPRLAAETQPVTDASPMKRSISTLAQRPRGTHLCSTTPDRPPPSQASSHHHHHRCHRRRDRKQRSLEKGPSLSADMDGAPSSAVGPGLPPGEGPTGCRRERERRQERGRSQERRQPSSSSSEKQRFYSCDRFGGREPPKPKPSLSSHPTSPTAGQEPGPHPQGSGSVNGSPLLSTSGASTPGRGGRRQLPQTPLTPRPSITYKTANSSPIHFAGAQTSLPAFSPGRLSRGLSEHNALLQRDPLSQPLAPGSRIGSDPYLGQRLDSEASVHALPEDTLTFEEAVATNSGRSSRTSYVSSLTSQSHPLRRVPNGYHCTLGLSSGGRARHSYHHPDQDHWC
T4 sequence (Q02410 whole entry): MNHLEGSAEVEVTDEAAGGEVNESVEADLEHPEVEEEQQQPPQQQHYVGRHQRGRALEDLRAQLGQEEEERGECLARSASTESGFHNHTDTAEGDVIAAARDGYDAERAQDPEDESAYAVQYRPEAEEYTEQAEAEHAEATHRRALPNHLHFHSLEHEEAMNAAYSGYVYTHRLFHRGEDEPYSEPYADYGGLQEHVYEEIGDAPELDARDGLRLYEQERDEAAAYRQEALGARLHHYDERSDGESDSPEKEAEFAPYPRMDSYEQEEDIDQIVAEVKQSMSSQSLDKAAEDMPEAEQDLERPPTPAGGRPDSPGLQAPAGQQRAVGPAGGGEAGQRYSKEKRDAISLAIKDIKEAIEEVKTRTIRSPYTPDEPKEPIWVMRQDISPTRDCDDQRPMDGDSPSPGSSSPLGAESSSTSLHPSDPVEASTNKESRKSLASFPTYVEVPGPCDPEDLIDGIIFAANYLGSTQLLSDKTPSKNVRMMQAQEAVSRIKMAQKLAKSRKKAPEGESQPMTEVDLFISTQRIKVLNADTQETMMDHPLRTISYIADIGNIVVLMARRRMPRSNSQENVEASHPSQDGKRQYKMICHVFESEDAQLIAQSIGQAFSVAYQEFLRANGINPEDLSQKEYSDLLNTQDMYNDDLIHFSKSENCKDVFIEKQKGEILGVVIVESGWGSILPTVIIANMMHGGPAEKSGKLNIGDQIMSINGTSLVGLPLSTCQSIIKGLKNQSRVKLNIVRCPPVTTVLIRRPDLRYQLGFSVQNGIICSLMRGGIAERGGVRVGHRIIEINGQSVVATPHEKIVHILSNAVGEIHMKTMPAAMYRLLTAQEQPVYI

[25] = target: T4, Voltage-gated N-type calcium channel alpha-1B subunit/Amyloid beta A4 precursor protein-binding family A member 1; test: disruptors of Mint-PDZ/N-type channel peptide interaction – biochemical, HTRF, set 2, SAR follow-up (AID 434980); format: functional
[26] = target: T4, Voltage-gated N-type calcium channel alpha-1B subunit/Amyloid beta A4 precursor protein-binding family A member 1; format: protein assay; remark: listed apart in the source
[27] = target: T4, Voltage-gated N-type calcium channel alpha-1B subunit/Amyloid beta A4 precursor protein-binding family A member 1; test: disruptors of Mint-PDZ/N-type channel peptide interaction – biochemical, HTRF, SAR follow-up (AID 2489); format: functional
SUMO E1/E2 = SUMO E1/E2 (Homo sapiens, UniProt P63279+Q9UBE0+Q9UBT2); test: SAR analysis of SUMOylation using HTRF in an in-Vitro dose response assay. [Related pubchem assays (depositor defined):AID2006, AID2011, AID2018, AID2069, AID2658]; format: functional
SUMO E1/E2, sequence (Q9UBE0 whole entry): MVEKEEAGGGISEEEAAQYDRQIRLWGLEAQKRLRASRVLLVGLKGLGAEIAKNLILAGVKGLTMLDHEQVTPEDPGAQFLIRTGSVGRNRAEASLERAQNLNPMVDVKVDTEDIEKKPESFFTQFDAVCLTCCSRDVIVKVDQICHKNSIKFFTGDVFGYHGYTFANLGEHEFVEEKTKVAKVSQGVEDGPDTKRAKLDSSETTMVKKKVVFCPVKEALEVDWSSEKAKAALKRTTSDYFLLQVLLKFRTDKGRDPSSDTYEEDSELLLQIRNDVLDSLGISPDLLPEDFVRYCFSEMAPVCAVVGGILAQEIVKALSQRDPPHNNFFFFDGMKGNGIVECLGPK
SUMO E1/E2, sequence (Q9UBT2 whole entry): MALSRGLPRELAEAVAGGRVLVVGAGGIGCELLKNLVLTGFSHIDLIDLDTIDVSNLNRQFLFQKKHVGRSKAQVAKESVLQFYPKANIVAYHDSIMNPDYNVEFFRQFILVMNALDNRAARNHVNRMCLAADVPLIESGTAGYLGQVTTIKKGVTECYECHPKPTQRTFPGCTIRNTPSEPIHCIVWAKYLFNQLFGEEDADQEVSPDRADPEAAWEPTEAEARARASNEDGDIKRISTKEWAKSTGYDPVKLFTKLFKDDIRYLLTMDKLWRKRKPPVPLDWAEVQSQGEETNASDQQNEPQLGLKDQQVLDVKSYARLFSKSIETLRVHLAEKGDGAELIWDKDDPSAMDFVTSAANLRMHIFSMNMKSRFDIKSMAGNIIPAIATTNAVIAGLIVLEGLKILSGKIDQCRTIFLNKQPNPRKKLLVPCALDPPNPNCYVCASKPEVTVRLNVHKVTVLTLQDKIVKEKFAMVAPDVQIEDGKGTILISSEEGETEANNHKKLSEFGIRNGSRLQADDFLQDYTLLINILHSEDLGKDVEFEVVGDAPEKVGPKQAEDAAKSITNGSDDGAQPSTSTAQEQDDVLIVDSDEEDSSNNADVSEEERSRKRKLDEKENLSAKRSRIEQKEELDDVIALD
SUMO E1/E2, sequence (P63279 whole entry): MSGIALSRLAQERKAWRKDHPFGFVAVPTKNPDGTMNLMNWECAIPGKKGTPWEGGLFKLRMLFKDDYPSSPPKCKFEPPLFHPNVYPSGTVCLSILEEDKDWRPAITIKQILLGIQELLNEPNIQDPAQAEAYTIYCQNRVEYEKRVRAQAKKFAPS

[28] = target: Induced myeloid leukemia cell differentiation protein Mcl-1 (Homo sapiens, UniProt Q07820); format: functional
[29] = MIN6 cell viability loss – mouse insulinoma, cytotoxicity control, dose response (AID 2122); format: functional;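 note: confirmatory high-throughput counterscreen run to flag cytotoxic compounds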
INS1 = test: INS-1E survival protection against cytokine death – cell-based, luminescence, retest, dose response (AID 449756); format: functional; conditions: Rattus norvegicus;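 note: cell death triggered by IL-1 beta plus TNF-alpha plus IFN-gamma mixture; protective hits raise ATP signal compared with cytokine alone wells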
[30] = Luminescence Cell-Based Dose Retest to Confirm Inhibitors of Cancer Stem Cells. [Related pubchem assays (depositor defined):AID2717, AID2721]; format: functional; conditions: Homo sapiens
[31] = decrease of insulin promoter-GFP reporter – imaging, high-content screening, mouse beta cells (AID 1628); format: functional; conditions: MIN6

Structure (SMILES): Cc1cc(C)cc(OCCOc2cccc(C=C3C(=O)NC(=O)NC3=O)c2)c1
- IC50 (Genome polyprotein): 46.9 µM (active)
- AC50 [1]: > 60 µM (inactive)

Structure (SMILES): COc1cc2ccccc2cc1C(=O)Nc1ccc(N2CCOCC2)cc1
- IC50 [2]: > 49.8 µM (inactive)
- IC50 [3]: 8.59 µM (active)
- IC50 (CHO-K1): > 66.3 µM (inactive)
- IC50 [4]: > 49.8 µM (inactive)

Structure (SMILES): Cc1ccc(-c2cc(C(=O)N/N=C/c3c(C)nn(-c4ccccc4)c3C)[nH]n2)cc1
- EC50 (BJ [5]): 2.04 µM (inconclusive)
- EC50 [6]: 1.01 µM (active)
- EC50 [7]: 1.28 µM (inconclusive)
- EC50 [8]: 2.09 µM (inconclusive)
- EC50 (BJ [9]): 0.603 µM (active)
- EC50 [10]: 0.576 µM (active)
- EC50 [11]: 10.1 µM (active)
- EC50 (BJ [12]): 0.624 µM (inconclusive)
- EC50 [13]: 14 µM (active)
- EC50 [14]: 5.9 µM (active)
- EC50 [15]: 7.44 µM (active)
- EC50 [16]: 1.75 µM (inconclusive)
- EC50 [17]: 0.327 µM (active)

Structure (SMILES): Cc1cc([N+](=O)[O-])cc2c1NC(C(=O)O)C1CC=CC21 (stereo unspecified)
- IC50 [18]: > 100 µM (not active)
- IC50 [19]: > 100 µM (inactive)
- IC50 [20]: 24.3 µM (active)
- IC50 [21]: > 100 µM (inactive)
- IC50 [22]: 117 µM (active)
- IC50 [23]: > 100 µM (not active)

Structure (SMILES): CCNC(=O)COC(=O)c1cc(-c2ccco2)nc2ccccc12
- IC50 [24]: 33.6 µM (active)
- IC50 [25]: 13.3 µM (active)
- IC50 [26]: 2.82 µM (active)
- IC50 [27]: 18.5 µM (active)
- IC50 (SUMO E1/E2): 2.63 µM (active)
- IC50 [28]: 4.39 µM (active)

Structure (SMILES): Cc1cccc(N(C)S(=O)(=O)c2ccc(-c3cc(C)no3)s2)c1
- EC50 [6]: 6.81 µM (active)
- EC50 [7]: 1.15 µM (inconclusive)
- EC50 [8]: 33.4 µM (inconclusive)
- EC50 [11]: 33.4 µM (active)
- EC50 [13]: 10.4 µM (active)
- EC50 [14]: 1.15 µM (active)
- EC50 [15]: 9.86 µM (active)
- EC50 [16]: 6.81 µM (inconclusive)
- EC50 [17]: 0.155 µM (active)

Structure (SMILES): COc1ccc(C)cc1NS(=O)(=O)c1ccc(NC(=O)CN(c2cc([N+](=O)[O-])ccc2C)S(C)(=O)=O)cc1
- IC50 [29]: 1.2 µM (active)
- EC50 (BJ [5]): 2.75 µM (active)
- EC50 (BJ [9]): 21 µM (active)
- EC50 [10]: 19.7 µM (active)
- AC50 (INS1): 0.846 µM (active)
- AC50 [30]: 1.8 µM (active)
- IC50 [31]: 1.1 µM (active)

Structure (SMILES): COc1ccccc1CNC(=O)CNC(=O)c1cc(-c2ccco2)nc2ccccc12
- IC50 [25]: > 56.8 µM (inactive)
- IC50 [27]: 23.3 µM (active)
- IC50 (SUMO E1/E2): 3.37 µM (active)

Structure (SMILES): O=C(O)C1Nc2ccccc2C2C=CCC12 (stereo unspecified)
- IC50 [18]: 6.05 µM (active)
- IC50 [19]: 50.8 µM (active)
- IC50 [20]: 7.14 µM (active)
- IC50 [21]: 25.2 µM (active)
- IC50 [22]: > 100 µM (not active)
- IC50 [23]: > 100 µM (not active)
